# Counter-ions that a name gives are not always drawn.
# Columns and labels:
# [1] = Plasma protein binding (ultrafiltration), across all species; type: in vitro ADME; settings: rat, mouse, dog, human, 37 °C, read-out: plasma protein binding, range across all species
# Description: Plasma ultrafiltration was used for determination of free and protein bound fractions of EC2629 and EC2491. Samples were extracted and analyzed using fit-for-purpose bioanalytical methods. Briefly, 500 nM EC2629 or EC2491 was spiked into plasma maintained at 37 °C prior to plasma ultrafiltration. Plasma spiked with 500 nM EC2629 or EC2491 was allowed to equilibrate at 37 °C for 30 min prior to processing. Next, 50 μL of plasma was transferred to a clean 1.2 mL plate stored at 2–8 °C for further processing. The remaining plasma sample volumes were transferred to 30 Kd MWCO PES filter to generate plasma ultrafiltrate by centrifugation at 10,000×g for 20 min. After which, 50 μL of each plasma ultrafiltrate was transferred to separate wells in a clean 1.2 mL plate. To all spiked plasma samples, 50 μL of blank plasma ultrafiltrate was added. 50 μL of blank plasma was added to all experimental ultrafiltrate samples. These blank matrix additions normalized the matrix effects for protein binding determination. Samples were then extracted using protein precipitation with a 3:1 ratio of acetonitrile after addition of internal standard. The supernatant transferred to a new plate, evaporated, and reconstituted prior to LC–MS/MS analysis.
# [2] = Whole blood stability, rat; type: in vitro ADME; settings: 37 °C, after two hours, read-out: percent remaining in whole blood
# Description: (§1) Whole blood and plasma stability were determined for EC2629 and EC2491 at a concentration of 500 nM. Samples were extracted and analyzed using fit-for-purpose bioanalytical methods. EC2629 or EC2491 was spiked into 1 mL whole blood or plasma maintained at 37 °C for 30 min prior to use . Fifty µl aliquots were then removed at defined timepoints and stored in a 1.2 mL extraction plate prior to analysis. Samples were then extracted using protein precipitation with a 3:1 ratio of acetonitrile after addition of internal standard. The supernatant was then transferred to a new plate, evaporated, and reconstituted prior to LC–MS/MS analysis.
# [3] = Stability in phosphate buffer pH 7.4; type: physicochemical; settings: 1 µM, 0.1 M phosphate buffer, pH 7.4, up to 1 h at 37 °C
# Description: The in vitro metabolic stability of EC2491 was evaluated using rat, dog, and human liver microsomes in the presence and absence of NADPH. Stability of EC2491 was also evaluated in phosphate buffer, pH 7.4, under the incubation conditions (see Fig. 7a). EC2491 (1 µM) is stable in 0.1 M phosphate buffer, pH 7.4 up to 1 h at 37 °C. When EC2491 (1 µM) is incubated with male rat, dog, and human microsomes in the absence of NADPH, there is some depletion of the compound such that approximately 63%, 56%, and 49% of the compound remains after 1 h in rat, dog, and human microsomes, respectively. […] In the presence of NADPH male rat liver microsomes metabolize EC2491 rapidly such that only 2% of the compound remains in the incubation mixture at the end of 1 h. Male dog and human liver microsomes metabolize EC2491 somewhat slowly (22% and 18% remaining at the end of 1 h respectively). This is indicative of CYP-mediated metabolism of EC2491.
# [4] = Whole blood stability, human; type: in vitro ADME; settings: 37 °C, after two hours, human whole blood, read-out: percent remaining in whole blood
# Description: as §1
# [5] = Liver microsome stability assay, rat; type: in vitro ADME; settings: 1 µM; for percent of compound remaining: male rat liver microsomes, 37 °C
# Description: (§2) Appropriate microsomes (XenoTech) were incubated with EC2491 in the presence or absence of NADPH regenerating system (Corning Gentest) at 37 °C. Incubations with NADPH contained 352.5 μL DI water, 100 μL 0.5 M potassium phosphate buffer, pH 7.4, 25 μL NADPH solution A, […], and 12.5 μL of the appropriate microsomes. Incubations without NADPH contained 382.5 μL water, 100 μL 0.5 M potassium phosphate buffer, pH 7.4, and 12.5 μL of the appropriate microsomes. 50 μL aliquots were withdrawn at various time points and mixed with internal standard, EC3044 (Endocyte) in acetonitrile. After mixing and evaporation of the acetonitrile, the samples were reconstituted. The samples were mixed, centrifuged, and 100 μL of supernatant was transferred to a new plate prior to LC–MS/MS analysis.
# [6] = Liver microsome stability assay, human; type: in vitro ADME; settings: 1 µM, human liver microsomes, 37 °C
# Description: as §2
# [7] = Liver microsome stability assay, dog; type: in vitro ADME; settings: 1 µM; for percent of compound remaining: 37 °C
# Description: as §2
# Plasma stability, mouse = type: in vitro ADME; settings: 37 °C
# Description: as §1
# [8] = Whole blood stability, mouse; type: in vitro ADME; settings: 37 °C, after two hours, mouse whole blood, read-out: percent remaining in whole blood
# Description: as §1
# Plasma stability, dog = type: in vitro ADME; settings: 37 °C
# Description: as §1
# [9] = Whole blood stability, dog; type: in vitro ADME; settings: 37 °C, after two hours, read-out: percent remaining in whole blood
# Description: as §1
# Plasma stability, rat = type: in vitro ADME; settings: 37 °C
# Description: as §1
# [10] = design: method as in PMID 19276288; settings: clinical studies, untargeted agent ref 19; cited from earlier work
# KB tumor xenografts = test: KB tumor xenograft in nu/nu mice; type: in vivo; settings: SJG-136 0.3 mg/kg SIW x 2 weeks
# Description: (§3) Four- to eight-week-old female nu/nu mice and rats (Harlan Sprague Dawley, Inc.), were maintained on a standard 12-h light–dark cycle and fed ad libitum with a low-folate chow (Harlan Teklad diet #TD.01013, Madison, WI) for the duration of dosing and 1 week post dosing schedule. Mice and rats were then switched to Teklad Global 18% Rodent diet (Harlan Teklad diet #2018S) during the monitoring phase of the study. Parental KB, KB-CR2000 or KB-PR10 cells (1 × 10^6/100 µL per nu/nu mouse and 5 × 10^6/200 µL per nu/nu rat) were injected into the subcutis of the dorsal medial area. Mice were divided into groups of 5 and rats in groups of 3–4, and freshly prepared test articles were injected through the lateral tail vein under sterile conditions in a volume of 200 μL/20 g of PBS. In mice, intravenous treatments typically initiated on day 7 PTI when KB tumors were approximately 111–168 mm^3 in volume, on day 5 PTI when the KB-PR tumors were about 205–243 mm^3, and on day 6 PTI when the KB-CR tumors were around 98 to 168 mm^3. Treatments in rats were started on day 10 PTI when KB tumors were approximately 412–704 mm^3 in volume.
# (§4) Animals in the control groups received no treatment. Growth of each subcutaneous tumor was followed by measuring the tumor 3 times per week during treatment and twice per week thereafter, until a maximum volume of 1,500 mm^3 for mice and 15,000 mm^3 for rats were reached. Tumors were measured in two perpendicular directions using Vernier calipers, and their volumes were calculated as V = 0.5 × L × W^2, where L = measurement of longest axis in mm and W = measurement of axis perpendicular to L in mm[16]. As a general measure of gross toxicity, changes in body weights were determined on the same schedule as tumor volume measurements. Survival of animals was monitored daily. Animals that were moribund (or unable to reach food or water) were euthanized by CO2 asphyxiation. Individual tumor response endpoints were reported in terms of tumor volume change. A partial response (PR) was defined as volume regression > 50% but with measurable tumor (> 2 mm^3) remaining at all times. Complete response (CR) was defined as a disappearance of measurable tumor mass (< 2 mm^3) at some point within 90 days after tumor implantation. Cures were defined as CRs without tumor regrowth within the 90-day study time frame.
# KB-CR tumors = test: Cisplatin-resistant KB-CR tumor xenograft in nu/nu mice; type: in vivo
# Description: as §3, §4
# [11] = system: ST738 patient derived xenograft; test: ST738 triple negative breast PDX model; type: in vivo, nu/nu mice; settings: Eribulin mesylate 1 mg/kg SIW x 2 weeks, n=7
# Description: (§5) Patient derived xenograft (PDX) studies were performed at South Texas Accelerated Research Therapeutics (START, San Antonio, TX). Patient tumor tissues were obtained with patients’ informed consent and PDX models were generated after multiple generations in mice. […] Tumor fragments were harvested from host animals and implanted into 6–12 weeks old female athymic nude mice (Crl:NU(NCr)-Foxn1nu). Intravenous treatments were initiated when ST502 (triple negative breast) tumors were approximately 112–333 mm^3, ST738 (triple negative breast) tumors were 112–300 mm^3, ST040 (endometrial) tumors were 78–333 mm^3, and ST070 (ovarian) tumors were 131–266 mm^3 in volume.
# as §4
# [12] = system: ST502 patient derived xenograft; test: ST502 triple negative breast PDX model; type: in vivo, nu/nu mice
# Description: as §5, §4
# [13] = system: ST040 patient derived xenograft; test: ST040 endometrial PDX model; type: in vivo, nu/nu mice
# Description: as §5, §4
# [14] = system: ST070 patient derived xenograft; test: ST070 ovarian PDX model; type: in vivo, nu/nu mice
# Description: as §5, §4
# KB-PR tumors = test: Paclitaxel-resistant KB-PR tumor xenograft in nu/nu mice; type: in vivo
# Description: as §3, §4
# [15] = Cisplatin 3 mg/kg BIW x 2 weeks, n=5
# [16] = Eribulin mesylate 1 mg/kg SIW x 2 weeks, n=7
# [17] = Paclitaxel 15 mg/kg SIW x 2 weeks, n=3
# [18] = paclitaxel 15 mg/kg SIW x 2 weeks
# [19] = Paclitaxel 15 mg/kg SIW x 2 weeks, n=7
# [20] = Paclitaxel 20 mg/kg TIW x 2 weeks, n=5
smiles,measurement,setting,value
C=C1C[C@H]2C=Nc3cc(OCCCCCOc4cc5c(cc4OC)C(=O)N4CC(=C)C[C@H]4C=N5)c(OC)cc3C(=O)N2C1 [EC2491],"fraction unbound at 30 min, 500 nM",[1],0.02 to 0.05
same,"remaining at 2 h, 500 nM",[2],95.6%
same,stability in buffer,[3],stable
same,"remaining at 2 h, 500 nM",[4],80.6%
same,metabolism in CYP3A induced microsomes versus corn-oil treated controls,"[5]; dexamethasone-treated male rat liver microsomes, + NADPH",more rapid metabolism
same,percent of compound remaining,"[5]; absence of NADPH, after 1 h",approximately 63%
same,percent of compound remaining,"[5]; presence of NADPH, end of 1 h",2%
same,percent of compound remaining,"[6]; absence of NADPH, after 1 h",~49%
same,percent of compound remaining,"[6]; presence of NADPH, end of 1 h",18%
same,percent of compound remaining,"[7]; dog liver microsomes, absence of NADPH, after 1 h",~56%
same,percent of compound remaining,"[7]; male dog liver microsomes, presence of NADPH, end of 1 h",22%
same,metabolism in CYP3A induced microsomes versus corn-oil treated controls,"[7]; rifampin-treated dog liver microsomes, + NADPH",more rapid metabolism
same,time stable in plasma,"Plasma stability, mouse",greater than 24 h
same,"remaining at 2 h, 500 nM",[8],87.3%
same,time stable in plasma,"Plasma stability, dog",greater than 24 h
same,"remaining at 2 h, 500 nM",[9],63.1%
same,time stable in plasma,"Plasma stability, rat",greater than 24 h
C=C1C[C@H]2C=Nc3cc(OCCCOc4cc5c(cc4OC)C(=O)N4CC(=C)C[C@H]4C=N5)c(OC)cc3C(=O)N2C1 [SJG-136],clinical toxicity,[10],dose-limiting hepatotoxicity and vascular leak syndrome
same,average weight loss,KB tumor xenografts,~ 10%
same,"deaths, number of animals","KB tumor xenografts; at 2 weeks post start of treatment, n=5",one
same,"CR (complete response), number of animals",KB tumor xenografts; n=5,0
same,"Cures, number of animals",KB tumor xenografts; n=5,2
same,"PR (partial response), number of animals",KB tumor xenografts; n=5,2
N.N.[Cl][Pt][Cl] [cisplatin],"CR (complete response), number of animals",KB-CR tumors; [15],0
same,"Cures, number of animals",KB-CR tumors; [15],0
same,"PR (partial response), number of animals",KB-CR tumors; [15],0
same,antitumor effect,KB-CR tumors; cisplatin 3 mg/kg BIW x 2 weeks,very little effect
C=C1C[C@@H]2CC[C@@]34C[C@H]5O[C@H]6[C@@H](O3)[C@H]3O[C@H](CC[C@@H]3O[C@H]6[C@H]5O4)CC(=O)C[C@@H]3[C@@H](OC)[C@@H](C[C@H](O)CN)O[C@H]3C[C@H]3O[C@@H](CC[C@@H]1O2)C[C@@H](C)C3=C [eribulin mesylate],"CR (complete response), number of animals",[11],0
same,"Cures, number of animals",[11],0
same,"PR (partial response), number of animals",[11],two
same,"PR (partial response), number of animals",[11]; listed as Eribulin mesylate,2
same,"CR (complete response), number of animals",[12]; [16],0
same,"Cures, number of animals",[12]; [16],0
same,"PR (partial response), number of animals",[12]; [16],one
same,"PR (partial response), number of animals","[12]; Eribulin mesylate 1 mg/kg SIW x 2 weeks, n=7, listed as Eribulin mesylate",1
same,antitumor activity,[12]; eribulin mesylate 1 mg/kg SIW x 2 weeks,did not display significant anti-tumor activity
CC(=O)O[C@H]1C(=O)[C@@]2(C)[C@H]([C@H](OC(=O)c3ccccc3)[C@]3(O)C[C@H](OC(=O)[C@H](O)[C@@H](NC(=O)c4ccccc4)c4ccccc4)C(C)=C1C3(C)C)[C@]1(OC(C)=O)CO[C@@H]1C[C@@H]2O [paclitaxel],"CR (complete response), number of animals",[13]; [17],0
same,"Cures, number of animals",[13]; [17],0
same,"PR (partial response), number of animals",[13]; [17],0
same,antitumor effect,[13]; [18],modest tumor growth delay
same,"CR (complete response), number of animals",[14]; [19],0
same,"Cures, number of animals",[14]; [19],0
same,"PR (partial response), number of animals",[14]; [19],0
same,antitumor effect,[14]; [18],essentially inactive
same,"CR (complete response), number of animals",KB-PR tumors; [20],0
same,"Cures, number of animals",KB-PR tumors; [20],0
same,"PR (partial response), number of animals",KB-PR tumors; [20],0
same,antitumor effect,KB-PR tumors; paclitaxel 20 mg/kg TIW x 2 weeks,very little effect

# Source: article PMC7391724 (Scientific Reports, 2020)
